Measured values published in BindingDB's records for doi:10.1021/jm00105a058 (J. Uriach & Cía., 1991).
pIC50: −log10 of the molar value.

assay: Inhibitory activity expressed as the concentration required to inhibit platelet-activating factor (PAF) induced maximum aggregation by 50%

Row | SMILES | pIC50
1 | CCCCCCCCCCCCCCCCCC1OCC(COCCCCCC[n+]2cscc2C)O1 (stereo not given) | 5.51
2 | CCCCCCCCCCCCCCOCC1COC(COC(=O)N(Cc2cccc[n+]2CC)C(C)=O)O1 (stereo not given) | 6.96
3 | CCCCCCCCCCCCCCC1COC(COCCCCCCCC[n+]2ccsc2)C1 (stereo not given) | 5.96
4 | CCCCCCCCCCCCCCCCCC1OCC(COP(=O)([O-])OCC[N+](C)(C)C)O1 (stereo not given) | < 4.00
5 | CCCCCCCCCCCCCCCCCCCC1OCC(COC(=O)CCCCC[n+]2ccsc2)O1 (stereo not given) | 5.26
6 | CCCCCCCCCCCCCCCCCCOCC1COC(COC(=O)N(Cc2cc[n+](CC)cc2)C(C)=O)C1 (stereo not given) | 5.80
7 | CCCCCCCCCCCCCCCCOCC1COC(COC(=O)N(Cc2cccc[n+]2CC)C(C)=O)C1 (stereo not given) | 7.74
8 | CCCCCCCCCCCCCCCCOCC1COC(COC(=O)N(C(C)=O)c2cc[n+](CC)cc2)C1 (stereo not given) | 6.07
9 | CCCCCCCCCCCCCCC1COC(COP(=O)([O-])OCC[n+]2ccccc2)C1 (stereo not given) | < 4.00
10 | CCCCCCCCCCCCCCCCOCC1CC(COCCCCCC[n+]2ccsc2)CO1 (stereo not given) | 5.85
11 | CCCCCCCCCCCCCCCCOCC1OCC(COC(=O)N(Cc2cccc[n+]2CC)C(C)=O)O1 (stereo not given) | 7.08
12 | CCCCCCCCCCCCCCCCCCC1COC(COC(=O)N(Cc2cccc[n+]2CC)C(C)=O)C1 (stereo not given) | 6.33
13 | CCCCCCCCCCCCCCC1COC(COC(=O)N(Cc2cccc[n+]2CC)C(C)=O)C1 (stereo not given) | 6.85
14 | CCCCCCCCCCCCCCC1COC(COCCCCCC[N+](C)(C)C)C1 (stereo not given) | 5.09
15 | CCCCCCCCCCCCCCCCOCC1COC(COC(=O)N(CCc2cccc[n+]2CC)C(C)=O)C1 (stereo not given) | 5.59
16 | CCCCCCCCCCCCCCCCCCOCC1OCC(COC(=O)N(Cc2cccc[n+]2CC)C(C)=O)O1 (stereo not given) | 6.85
17 | CCCCCCCCCCCCCCCC1OCC(COC(=O)CCCCC[n+]2ccsc2)O1 (stereo not given) | 5.52
18 | CCCCCCCCCCCCCCCCCC1CCC(COC(=O)N(Cc2cccc[n+]2CC)C(C)=O)O1 (stereo not given) | 7.15
19 | CCCCCCCCCCCCCCCCCCOCC1COC(COC(=O)CCCCC[n+]2ccsc2)C1 (stereo not given) | 5.04
20 | CCCCCCCCCCCCCCCCOCC1COC(COC(=O)N(Cc2cccc[n+]2CC)C(C)=O)O1 (stereo not given) [2-{[Acetyl-(4-hexadecyloxymethyl-[1,3]dioxolan-2-ylmethoxycarbonyl)-amino]-methyl}-1-ethyl-pyridinium; chloride] | 7.72
21 | CCCCCCCCCCCCCCCCCCOCC1COC(COC(=O)NCc2cc[n+](CC)cc2)C1 (stereo not given) | 5.10
22 | CCCCCCCCCCCCCCCCCC1OCC(COCCCCCC[N+]2(C)CCOCC2)O1 (stereo not given) | 5.00
23 | CCCCCCCCCCCCCCC1COC(COP(=O)([O-])OCC[n+]2ccsc2)C1 (stereo not given) | < 4.00
24 | CCCCCCCCCCCCCCCCCCOCC1COC(COC(=O)N=c2ccn(CC)cc2)C1 (stereo not given) | 5.72
25 | CCCCCCCCCCCCCCCCCC1OCC(COC(=O)CCCCC[n+]2ccsc2)O1 (stereo not given) | 5.96
26 | CCCCCCCCCCCCCCCCCC1OCC(COCCCCCC[n+]2cccc3ccccc32)O1 (stereo not given) | 5.57
27 | CCCCCCCCCCCCCCCCOCC1OCC(COCCCCCC[n+]2ccsc2)O1 (stereo not given) | 5.89
28 | CCCCCCCCCCCCOCC1COC(COCCCCCCC[n+]2ccsc2)C1 (stereo not given) | 5.96
29 | CCCCCCCCCCCCCCCCOCC1COC(COC(=O)NCc2cccc[n+]2CC)C1 (stereo not given) | 5.28

The remaining lines, values ahead:

Row | pIC50 | SMILES
30 | 6.68 | CCCCCCCCCCCCCCCCCC1OCC(COC(=O)N(Cc2cccc[n+]2CC)C(C)=O)O1 (stereo not given)
31 | < 4.30 | CCCCCCCCCCCCCCC1COC(COC(=O)CCCCC[n+]2ccsc2)C1 (stereo not given)
32 | 5.77 | CCCCCCCCCCCCCCOCC1COC(COCCCCCCC[n+]2ccsc2)C1 (stereo not given)
33 | 5.85 | CCCCCCCCCCCCCCCCCC1OCC(COCCCCCC[n+]2ccsc2)O1 (stereo not given)
34 | 4.96 | CCCCCCCCCCCCCCCCOCC1COC(COC(=O)N(Cc2ccccn2)C(C)=O)C1 (stereo not given)
35 | 5.72 | CCCCCCCCCCCCCCC1COC(COCCCCCC[n+]2cccc3ccccc32)C1 (stereo not given)
36 | 5.22 | CCCCCCCCCCCCCCCCCC1OCC(COCCCC[n+]2ccsc2)O1 (stereo not given)
37 | 7.14 | CCCCCCCCCCCCCCCCOCC1COC(COC(=O)N(Cc2cccc[n+]2CC)C(=O)OCC)C1 (stereo not given)
38 | 4.70 | CCCCCCCCCCCCCC1OCC(COC(=O)CCCCC[n+]2ccsc2)O1 (stereo not given)
39 | 5.41 | CCCCCCCCCCCCCCCCCCOCC1CC(COCCCCCCC[n+]2ccsc2)CO1 (stereo not given)
40 | 6.08 | CCCCCCCCCCCCCCC1COC(COCCCCCCC[n+]2ccsc2)C1 (stereo not given)
41 | < 3.70 | CCCCCCCCCCCCCCC1COC(COP(=O)([O-])OCC[N+](C)(C)C)C1 (stereo not given)
42 | 5.55 | CCCCCCCCCCCCCCCCOCC1COC(COC(=O)NCCc2cccc[n+]2CC)C1 (stereo not given)
43 | 5.85 | CCCCCCCCCCCCCCOCC1COC(COCCCCCC[n+]2ccsc2)C1 (stereo not given)
44 | 5.60 | CCCCCCCCCCCCCCCCCCOCC1COC(COC(=O)N(Cc2ccc[n+](CC)c2)C(C)=O)C1 (stereo not given)
45 | 6.70 | CCCCCCCCCCCCCCCCOCC1COC(COC(=O)N(Cc2cccc[n+]2C)C(C)=O)C1 (stereo not given)
46 | 5.64 | CCCCCCCCCCCCCCCCOCC1COC(COC(=O)N(C(C)=O)c2ccc[n+](CC)c2)C1 (stereo not given)
47 | 7.10 | CCCCCCCCCCCCCCCC1CCC(COC(=O)N(Cc2cccc[n+]2CC)C(C)=O)O1 (stereo not given)
48 | 7.62 | CCCCCCCCCCCCCCCCCC1COC(COC(=O)N(Cc2cccc[n+]2CC)C(C)=O)O1 (stereo not given)
49 | 6.27 | CCCCCCCCCCCCCCCCOCC1COC(COCCCCCC[n+]2ccsc2)C1 (stereo not given)

Row | pIC50 | SMILES
50 | < 4.00 | CCCCCCCCCCCCCCCCCC1OCC(COP(=O)([O-])OCC[n+]2ccccc2)O1 (stereo not given)
51 | 5.44 | CCCCCCCCCCCCCCCCOCC1COC(COC(=O)CCCCC[n+]2ccsc2)C1 (stereo not given)
52 | 5.89 | CCCCCCCCCCCCCCCC1CCC(COCCCCCC[n+]2ccsc2)O1 (stereo not given)
53 | 5.62 | CCCCCCCCCCCCCCCCCC1OCC(COCCCCCC[N+](C)(C)C)O1 (stereo not given)
54 | 5.51 | CCCCCCCCCCCCCCCC1CCC(COC(=O)CCCCC[n+]2ccsc2)O1 (stereo not given)
55 | 7.03 | CCCCCCCCCCCCCCCCCCOCC1COC(COC(=O)N(Cc2cccc[n+]2CC)C(C)=O)O1 (stereo not given)
56 | 5.52 | CCCCCCCCCCCCCCCCCC1OCC(COCCCCCC[n+]2ccccc2)O1 (stereo not given)
57 | 5.68 | CCCCCCCCCCCCCCC1COC(COCCCCCC[n+]2ccsc2)C1 (stereo not given)
58 | 5.92 | CCCCCCCCCCCCCCCCOCC1OCC(COCCCC[n+]2ccsc2)O1 (stereo not given)
59 | 7.28 | CCCCCCCCCCCCCCCCCCOCC1COC(COC(=O)N(Cc2cccc[n+]2CC)C(C)=O)C1 (stereo not given)
60 | 5.82 | CCCCCCCCCCCCCCCCCCOCC1CC(COC(=O)CCCCC[n+]2ccsc2)CO1 (stereo not given)
61 | 5.77 | CCCCCCCCCCCCCCCCC1COC(COCCCCCCC[n+]2ccsc2)C1 (stereo not given)
62 | 7.00 | CCCCCCCCCCCCCCCCOCC1CCC(COC(=O)N(Cc2cccc[n+]2CC)C(C)=O)O1 (stereo not given)
63 | 4.41 | CCCCCCCCCCCCCCC1COC(COCCCC[n+]2ccsc2)C1 (stereo not given)
64 | 5.43 | CCCCCCCCCCCCCCCCCC1OCC(COCCCCCCCC[n+]2ccsc2)O1 (stereo not given)
65 | 5.31 | CCCCCCCCCCCCCCCCOCC1OCC(COC(=O)CCCCC[n+]2ccsc2)O1 (stereo not given)
66 | 3.82 | CC1OCC(COC(=O)CCCCC[n+]2ccsc2)O1 (stereo not given)
67 | 7.07 | CCCCCCCCCCCCCCOCC1COC(COC(=O)N(Cc2cccc[n+]2CC)C(C)=O)C1 (stereo not given)
68 | 5.68 | CCCCCCCCCCCCCCCCCCOCC1CC(COCCCCC[n+]2ccsc2)CO1 (stereo not given)

assay: as above; remark: another data set of the same source

Row | SMILES | pIC50
69 | CCCCCCCCCCCCCCCCOCC1COC(COC(=O)N(Cc2cccc[n+]2CC)C(C)=O)C1 (stereo not given) | 8.09
70 | CCCCCCCCCCCCCCCCOCC1COC(COC(=O)N(Cc2cccc[n+]2CC)C(C)=O)O1 (stereo not given) [2-{[Acetyl-(4-hexadecyloxymethyl-[1,3]dioxolan-2-ylmethoxycarbonyl)-amino]-methyl}-1-ethyl-pyridinium; chloride] | 7.82
